The structures appear in SMILES notation. pEC50: −log10 of the molar value. Calls of active or inactive are those of the source. No cut-off for these calls is given here.

These results are taken from ChEMBL document CHEMBL5532665 (J Med Chem, 2024).

The target of data set [1] is T1, Kappa-type opioid receptor (Homo sapiens, UniProt P41145). As to the kind of experiment: Agonist activity at human KOR expressed in CHO-K1 cells co-expressing G-alpha15 by calcium mobilization assay. The following applies: cho-k1. In kind it is functional, cell-based.
Data set [2] in a line: Stability in mouse plasma assessed as half life at 0.01 mol/L measured for 72 hrs by RP-HPLC analysis. In kind it is ADME, cell-free.
In data set [3] the target is T2, Delta-type opioid receptor (Homo sapiens, UniProt P41143). As to the kind of experiment: Agonist activity at human DOR expressed in CHO-K1 cells co-expressing G-alpha15 by calcium mobilization assay. In kind it is functional, cell-based. To be noted: cho-k1. On the technique in general: Calcium assays in cells follow changes in intracellular calcium, usually with a dye or a luminescent sensor.

Data set [4] deals with T3, Mu-type opioid receptor (Homo sapiens, UniProt P35372). The data set is described as follows: Agonist activity at human MOR expressed in CHO-K1 cells co-expressing G-alpha15 by calcium mobilization assay. In kind it is functional, cell-based. The following applies: cho-k1.
Data set [5] relates to Mus musculus. The data set is described as follows: Antinociceptive activity in Kunming mouse model at 136.2 nmol/kg, sc pretreated with NALM intracerebroventricularly followed by compound administration by tail-flick test. In kind it is functional, organism-based. (Hot-plate and tail-flick tests time the reaction to a heat stimulus.)
In data set [6] the target is T3, Mu-type opioid receptor. The data set is described as follows: Agonist activity at human MOR expressed in CHO-K1 cells co-expressing G-alpha15 by calcium mobilization assay relative to control. The following applies: filed as agonist. In kind it is functional, cell-based.
Data set [7] relates to Mus musculus. The data set is described as follows: Antinociceptive activity in Kunming mouse model at 136.2 nmol/kg, sc in presence of NTI by tail-flick test. In kind it is functional, organism-based.
For data set [8], the system named is Mus musculus. The data set is described as follows: Antinociceptive activity in Kunming mouse model at 136.2 nmol/kg, sc in presence of nor-BNI by tail-flick test. In kind it is functional, organism-based.
Data set [9] addresses T2, Delta-type opioid receptor. The data set is described as follows: Agonist activity at human DOR expressed in CHO-K1 cells co-expressing G-alpha15 by calcium mobilization assay relative to control. To be noted: filed as agonist. In kind it is functional, cell-based.
Data set [10] addresses T1, Kappa-type opioid receptor. As to the kind of experiment: Agonist activity at human KOR expressed in CHO-K1 cells co-expressing G-alpha15 by calcium mobilization assay relative to control. In kind it is functional, cell-based. To be noted: filed as agonist.
Data set [11] has as its system Mus musculus. As to the kind of experiment: Antinociceptive activity in Kunming mouse model at 136.2 nmol/kg, sc pretreated with NALM subcutaneously followed by compound administration by tail-flick test. In kind it is functional, organism-based.
In data set [12] the test system is Mus musculus. The data set is described as follows: Antinociceptive activity in Kunming mouse model at 136.2 nmol/kg, sc in presence of beta-FNA by tail-flick test. In kind it is functional, organism-based.
Data set [13] deals with T1, Kappa-type opioid receptor. As to the kind of experiment: Agonist activity at human KOR expressed in CHO-K1 cells co-expressing G-alpha15 upto 100 uM by calcium mobilization assay. In kind it is functional, cell-based.
The test system of data set [14] is Mus musculus. The data set is described as follows: Antinociceptive activity in Kunming mouse model assessed as latency of tail withdrawal at 1416 nmol/kg, sc measured for 60 mins by tail-flick test relative to control. In kind it is functional. The following applies: 1 h.
In data set [15] the test system is Mus musculus. The data set is described as follows: Antinociceptive activity in Kunming mouse model assessed as latency of tail withdrawal at 1416 nmol/kg, sc measured for 30 mins by tail-flick test relative to control. In kind it is functional. To be noted: 0.5 h.
In data set [16] the test system is Mus musculus. As to the kind of experiment: Antinociceptive activity in Kunming mouse model assessed as latency of tail withdrawal at 1416 nmol/kg, sc measured for 10 mins by tail-flick test relative to control. In kind it is functional.
Data set [17] deals with Mus musculus. As to the kind of experiment: Antinociceptive activity in Kunming mouse model assessed as latency of tail withdrawal at 1416 nmol/kg, sc measured for 120 mins by tail-flick test relative to control. In kind it is functional. To be noted: 2 h.
In data set [18] the test system is Mus musculus. The data set is described as follows: Antinociceptive activity in Kunming mouse model assessed as latency of tail withdrawal at 13.9 nmol/kg, sc measured for 60 mins by tail-flick test relative to control. In kind it is functional. The following applies: 1 h.
Data set [19] has as its system Mus musculus. The data set is described as follows: Antinociceptive activity in Kunming mouse model administered subcutaneously measured for 5 to 15 mins by acetic acid-induced writhing test. In kind it is functional. The following applies: route sc, time 5-15 min. Background: An intraperitoneal irritant provokes the stretching counted in writhing tests.
In data set [20] the test system is Mus musculus. The data set is described as follows: Antinociceptive activity in Kunming mouse model administered subcutaneously by tail-flick test. In kind it is functional. To be noted: route sc.
Data set [21] has as its system Mus musculus. As to the kind of experiment: Antinociceptive activity in Kunming mouse model assessed as latency of tail withdrawal at 13.9 nmol/kg, sc measured for 30 mins by tail-flick test relative to control. In kind it is functional. To be noted: 0.5 h.
The subject of data set [22] is Mus musculus. The data set is described as follows: Antinociceptive activity in Kunming mouse model administered orally by tail-flick test. In kind it is functional. To be noted: route po.
Data set [23] relates to Mus musculus. The data set is described as follows: Antinociceptive activity in Kunming mouse model assessed as latency of tail withdrawal at 13.9 nmol/kg, sc measured for 10 mins by tail-flick test relative to control. In kind it is functional.
For data set [24], the system named is Mus musculus. As to the kind of experiment: Inhibition of gastrointestinal motility in fasted Kunming mouse model treated subcutaneously for 15 mins followed by charcoal-gum arabic treatment measured after 30 mins. In kind it is functional. The following applies: 0.75 h, route sc, time 45 min.
Data set [25] concerns Mus musculus. As to the kind of experiment: Antinociceptive activity in Kunming mouse model assessed as latency of tail withdrawal at 13.9 nmol/kg, sc measured for 120 mins by tail-flick test relative to control. In kind it is functional. The following applies: 2 h.

T3 sequence (P35372 whole entry): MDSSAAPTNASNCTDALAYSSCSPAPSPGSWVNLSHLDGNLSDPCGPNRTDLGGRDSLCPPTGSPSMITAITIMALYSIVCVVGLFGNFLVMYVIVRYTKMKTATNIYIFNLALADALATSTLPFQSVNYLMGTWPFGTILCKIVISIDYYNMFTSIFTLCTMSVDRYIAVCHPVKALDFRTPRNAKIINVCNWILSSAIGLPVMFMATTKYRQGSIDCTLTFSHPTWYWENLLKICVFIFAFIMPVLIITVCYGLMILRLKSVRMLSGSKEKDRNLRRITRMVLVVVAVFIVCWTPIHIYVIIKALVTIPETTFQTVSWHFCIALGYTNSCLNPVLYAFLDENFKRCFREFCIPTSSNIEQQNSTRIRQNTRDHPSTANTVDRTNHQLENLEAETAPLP
T2 sequence (P41143 whole entry): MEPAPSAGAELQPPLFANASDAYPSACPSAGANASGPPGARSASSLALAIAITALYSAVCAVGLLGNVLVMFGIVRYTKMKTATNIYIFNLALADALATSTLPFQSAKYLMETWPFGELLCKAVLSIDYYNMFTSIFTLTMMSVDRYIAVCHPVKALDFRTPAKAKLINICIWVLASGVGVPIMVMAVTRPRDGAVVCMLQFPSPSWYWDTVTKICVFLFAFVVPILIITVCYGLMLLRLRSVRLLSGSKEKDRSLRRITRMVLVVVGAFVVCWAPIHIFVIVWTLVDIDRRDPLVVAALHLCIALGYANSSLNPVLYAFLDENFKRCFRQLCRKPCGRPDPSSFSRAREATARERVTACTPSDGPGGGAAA
T1 sequence (P41145 whole entry): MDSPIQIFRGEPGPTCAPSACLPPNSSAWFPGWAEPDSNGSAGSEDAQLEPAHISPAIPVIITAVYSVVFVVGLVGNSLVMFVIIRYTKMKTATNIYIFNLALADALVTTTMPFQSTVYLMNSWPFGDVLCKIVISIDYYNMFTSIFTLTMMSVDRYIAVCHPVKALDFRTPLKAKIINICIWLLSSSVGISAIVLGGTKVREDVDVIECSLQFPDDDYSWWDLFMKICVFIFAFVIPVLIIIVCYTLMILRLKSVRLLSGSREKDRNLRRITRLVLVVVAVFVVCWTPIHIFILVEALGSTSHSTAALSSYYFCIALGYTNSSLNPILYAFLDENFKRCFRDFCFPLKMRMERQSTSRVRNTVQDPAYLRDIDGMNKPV

By pEC50 is commonly meant −log10 of the EC50, conventionally taken in molar units. By half-life is commonly meant the time in which the quantity being followed falls by half. Regarding `CC1(C)NC(=O)[C@H](NC(=O)[C@@H](N)Cc2ccc(O)cc2)CCCCNC(=O)C[C@@H](C(=O)N2CCC[C@@H]2C(N)=O)NC(=O)[C@H](Cc2ccccc2)NC1=O`, the values for the pEC50 in data set [1], in data set [3] and in data set [4] were 5.14, 7.31 and 8.28, respectively. For the same molecule, in [2], the half-life at 0.01 mol/L was > 72 h.
As to `NC(=O)[C@H]1CCCN1C(=O)[C@@H]1CC(=O)NCCCC[C@@H](NC(=O)[C@@H](N)Cc2ccc(O)cc2)C(=O)NCC(=O)N[C@@H](Cc2ccc3ccccc3c2)C(=O)N1`, in [2], the half-life at 0.01 mol/L was 20.3 h. The pEC50 in data set [3] was 8.66; in data set [4], 8.74.
As usually defined, the Emax is the size of the effect at its maximum, as opposed to the concentration needed. For `CC1(C)NC(=O)[C@H](NC(=O)[C@@H](N)Cc2ccc(O)cc2)CCCCNC(=O)C[C@H](C(=O)N2CCC[C@H]2C(N)=O)NC(=O)[C@H](Cc2ccccc2)NC1=O`, the result in data set [5] and in data set [7] was Active. The Emax is 100% in data set [6], 103% in [9] and 89.2% in data set [10]. In addition, the outcome in data set [8], in data set [11] and in [12] was inactive.
With `NC(=O)[C@@H]1CCCN1C(=O)[C@H]1CC(=O)NCCCC[C@@H](NC(=O)[C@@H](N)Cc2ccc(O)cc2)C(=O)NCC(=O)N[C@@H](CCc2ccccc2)C(=O)N1`, the outcome in data set [13] was inactive. The Emax in data set [6] was 99.8%; in data set [9], 66.6%.
`NC(=O)[C@H]1CCCN1C(=O)[C@@H]1CC(=O)NCCCC[C@@H](NC(=O)[C@@H](N)Cc2ccc(O)cc2)C(=O)NCC(=O)N[C@@H](Cc2ccccc2)C(=O)N1`: the MPE was 63.7% in data set [14], 91.2% in data set [15], 65.5% in data set [16] and 33.6% in [17].
What is called ED50 is the midpoint of the dose-response relation. `CN1C(=O)CNC(=O)[C@H](NC(=O)[C@@H](N)Cc2ccc(O)cc2)CCCCNC(=O)C[C@@H](C(=O)N2CCC[C@@H]2C(N)=O)NC(=O)[C@@H]1Cc1ccccc1`: the MPE came to 93.9% in [18], 93.8% in data set [21], 81.9% in data set [23] and 75.3% in data set [25]. Also, the ED50 in [19] is 0.0025 µmol/kg; in data set [20], 0.0006 µmol/kg; in data set [22] it was 0.0003 µmol/kg; in data set [24] it was 0.0326 µmol/kg.
Turning to `NC(=O)[C@@H]1CCCN1C(=O)[C@H]1CC(=O)NCCCC[C@@H](NC(=O)[C@@H](N)Cc2ccc(O)cc2)C(=O)NCC(=O)N(Cc2ccccc2)CC(=O)N1`, the result in [13] was inactive. In addition, the Emax in data set [6] worked out at 113%; in [9], 88.9%.
`C[C@H]1NC(=O)[C@H](NC(=O)[C@@H](N)Cc2ccc(O)cc2)CCCCNC(=O)C[C@H](C(=O)N2CCC[C@H]2C(N)=O)NC(=O)[C@H](Cc2ccccc2)NC1=O`: the half-life at 0.01 mol/L in [2] is > 72 h. The MPE in [18] turned out to be 88.4%; in data set [21], 91.4%; in [23], 63.6%; in [25], 44.4%. In addition, the Emax in data set [6] was found to be 115%. For the same molecule, in data set [4], the pEC50 is 7.20.
